# Measured values: patent US7786165B2, “Aminophenylpropanoic acid derivative” (Takeda Pharmaceutical Company Limited, priority 2004, dated 2010)
# Where a name gives a salt, the structure may show the parent alone.
# Molecular target: T1, human GPR40 (Homo sapiens, UniProt O14842)
# T1 construct: expressed in transfected cells; host or cells: CHO cell line stably expressing human GPR40
# Test: Determination of EC50 for human GPR40: intracellular calcium change by FLIPR in CHO cells stably expressing human GPR40
# Format: cell-based
# Settings: CHO cell line stably expressing human GPR40, changes in intracellular calcium concentration, Fluo3-AM, read-out: EC50 (Receptor Function Modulating Action On GPR40)
# Procedure: Determination of EC50 of the Compound of the Present Invention for Human GPR40
# For determination of EC50, CHO cell line that stably expressed human GPR40 was used. Unless otherwise indicated, the CHO cell line was cultured using α-MEM medium (Invitrogen) containing 10% fetal calf serum (Invitrogen).
# The cells cultured to nearly confluent were rinsed with PBS (Invitrogen) on the previous day of the assay, peeled off with 0.05% Trypsin-EDTA solution (Invitrogen) and recovered by centrifugation. The number of the obtained cells was counted, and the cells were diluted such that 3×10^5 cells were contained per 1 mL of the medium, dispensed to a black welled 96-well plate (coster) by 100 μL per well and cultured overnight in a CO2 incubator. Various test compounds were added to the CHO cells thus prepared, and the changes in the intracellular calcium concentration were measured using FLIPR (Molecular Device). The below-mentioned pre-treatment was applied to measure changes in the intracellular calcium concentration by FLIPR.
# First, an assay buffer for adding a fluorescence dye Fluo3-AM (DOJIN) to the cells, or for washing the cells immediately before FLIPR assay was prepared. To a solution of HBSS (Invitrogen, 1000 mL) to which 1M HEPES (pH 7.4, DOJIN, 20 mL) added (hereinafter HBSS/HEPES solution) was added a solution (10 mL) obtained by dissolving probenecid (Sigma, 710 mg) in 1N NaOH (5 mL), and adding and mixing an HBSS/HEPES solution (5 mL), and the resulting solution was used as an assay buffer. Next, Fluo3-AM (50 μg) was dissolved in dimethylsulfoxide (Wako, 21 μL), and an equivalent amount of 20% pluronic acid (Molecular Probes) was added and mixed. The solution was added to the assay buffer (10.6 mL) supplemented with fetal vovine serum (105 μL) to give a fluorescence dye solution. The medium of the CHO cells inoculated to the black welled 96-well plate on the previous day of assay was removed, the fluorescence dye solution was immediately dispensed by 100 μL per well and the cells were cultured in a CO2 incubator for 1 hr to allow intake of the fluorescence dye by the cells. The cells after the culture were washed with the above-mentioned assay buffer and set on FLIPR. The test compound was diluted with dimethylsulfoxide in advance, dispensed to polypropylene 96-well plate (sample plate) by […], and cryopreserved at −20° C. To the thawed sample plate was added an assay buffer containing 0.015% CHAPS (DOJIN) by 198 μL, and simultaneously set on FLIPR together with the cell plate. After the aforementioned pre-treatment, changes in the intracellular calcium concentration upon addition of various test compounds as measured by FLIPR. Based on the results, a dose-response curve of each test compound was formed and EC50 was calculated.
# T1 sequence (O14842 whole entry): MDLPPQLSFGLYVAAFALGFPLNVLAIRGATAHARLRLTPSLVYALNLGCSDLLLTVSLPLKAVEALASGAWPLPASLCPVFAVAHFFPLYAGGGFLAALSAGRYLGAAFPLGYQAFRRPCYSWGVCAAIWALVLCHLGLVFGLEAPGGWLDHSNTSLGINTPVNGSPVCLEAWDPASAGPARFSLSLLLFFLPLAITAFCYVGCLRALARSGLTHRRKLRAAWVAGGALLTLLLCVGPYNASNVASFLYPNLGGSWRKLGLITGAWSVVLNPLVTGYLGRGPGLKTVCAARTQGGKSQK
row,Structure (SMILES),EC50
1,"CCN(CC)C(=O)COc1cc(C)c(-c2cccc(CNc3ccc(CCC(=O)O)c(F)c3)c2)c(C)c1 [Example 98, 3-{4-[({4′-[2-(diethylamino)-2-oxoethoxy]-2′,6′-dimethylbiphenyl-3-yl}methyl)amino]-2-fluorophenyl}propanoic acid]",< 100 nM
2,"Cc1cccc(C)c1-c1cc(CNc2ccc(CCC(=O)O)c(F)c2)cc(OCc2ccccc2)c1 [Example 105, 3-[4-({[5-(benzyloxy)-2′,6′-dimethylbiphenyl-3-yl]methyl}amino)-2-fluorophenyl]propanoic acid methanesulfonate]",< 100 nM
3,"CCOCCOc1cc(C)c(-c2cccc(CNc3ccc(OCC(=O)O)cc3)c2)c(C)c1 [Example 67, [4-({[4′-(2-ethoxyethoxy)-2′,6′-dimethylbiphenyl-3-yl]methyl}amino)phenoxy]acetic acid]",< 100 nM
4,"CC(C)COc1ccc(CNc2ccc(CCC(=O)O)cc2)cc1CN1c2ccccc2C=CC1(C)C [Example 138, 3-[4-({3-[(2,2-dimethylquinolin-1(2H)-yl)methyl]-4-isobutoxybenzyl}amino)phenyl]propanoic acid]",< 1000 nM
5,"CC(C)(C)c1cc(CCc2ccccc2)n(Cc2ccc(CNc3ccc(CCC(=O)O)c(F)c3)cc2)n1 [Example 113, 3-{4-[(4-{[3-tert-butyl-5-(2-phenylethyl)-1H-pyrazol-1-yl]methyl}benzyl)amino]-2-fluorophenyl}propanoic acid methanesulfonate]",< 100 nM
6,"CCOCCOc1ccc(-c2cc(CNc3ccc(CCC(=O)O)cc3)ccc2OCc2ccccc2)cc1 [Example 70, 3-[4-({[6-(benzyloxy)-4′-(2-ethoxyethoxy)biphenyl-3-yl]methyl}amino)phenyl]propanoic acid]",< 100 nM
7,"O=C(O)CCc1ccc(NCc2ccc(Cn3nc(-c4ccccc4)cc3-c3ccccc3)cc2)cc1 [Example 44, 3-[4-({4-[(3,5-diphenyl-1H-pyrazol-1-yl)methyl]benzyl}amino)phenyl]propanoic acid]",< 100 nM
8,"COc1cccc(Oc2cc(C)c(-c3cccc(CNc4ccc(CCC(=O)O)c(F)c4)c3)c(C)c2)n1 [Example 164, 3-{2-fluoro-4-[({4′-[(6-methoxypyridin-2-yl)oxy]-2′,6′-dimethylbiphenyl-3-yl}methyl)amino]phenyl}propanoic acid dihydrochloride]",< 100 nM
9,"Cc1cccc(C)c1-c1cccc(CNc2ccc(CCC(=O)O)cc2)c1 [Example 2, 3-(4-{[(2′,6′-dimethylbiphenyl-3-yl)methyl]amino}phenyl)propanoic acid]",< 10 nM
10,"Cc1ccc2ccccc2c1-c1cccc(CNc2ccc(CCC(=O)O)cc2)c1 [Example 26, 3-(4-{[3-(2-methyl-1-naphthyl)benzyl]amino}phenyl)propanoic acid hydrochloride]",< 100 nM
11,"O=C(O)CCc1ccc(NC2CCc3c(Oc4ccccc4)cccc32)cc1 (stereo not shown) [Example 212, 3-{4-[(4-phenoxy-2,3-dihydro-1H-inden-1-yl)amino]phenyl}propanoic acid]",< 100 nM
12,"CCOCCOc1ccc(-c2cc(CNc3ccc(CCC(=O)O)cc3)ccc2OC(C)C)cc1 [Example 127, 3-[4-({[4′-(2-ethoxyethoxy)-6-isopropoxybiphenyl-3-yl]methyl}amino)phenyl]propanoic acid]",< 100 nM
13,"CCOCCS(=O)(=O)c1cc(C)c(-c2cccc(CNc3ccc(CCC(=O)O)c(F)c3)c2)c(C)c1 [Example 184, 3-{4-[({4′-[(2-ethoxyethyl)sulfonyl]-2′,6′-dimethylbiphenyl-3-yl}methyl)amino]-2-fluorophenyl}propanoic acid]",< 100 nM
14,"CC(C)(C)c1cc(COc2ccccc2)n(Cc2ccc(CNc3ccc(CCC(=O)O)c(F)c3)cc2)n1 [Example 169, 3-{4-[(4-{[3-tert-butyl-5-(phenoxymethyl)-1H-pyrazol-1-yl]methyl}benzyl)amino]-2-fluorophenyl}propanoic acid dimethanesulfonate]",< 100 nM
15,"Cn1ncc(COc2ccc(CNc3ccc(CCC(=O)O)cc3)cc2)c1-c1ccc(F)cc1 [Example 47, 3-{4-[(4-{[5-(4-fluorophenyl)-1-methyl-1H-pyrazol-4-yl]methoxy}benzyl)amino]phenyl}propanoic acid]",< 1000 nM
16,"CCOCCOc1cc(C)c(-c2cccc(CNc3ccc(CCC(=O)O)c(F)c3)c2)c(C)c1 [Example 40, 3-[4-({[4′-(2-ethoxyethoxy)-2′,6′-dimethylbiphenyl-3-yl]methyl}amino)-2-fluorophenyl]propanoic acid hydrochloride]",< 100 nM
17,"Cc1cc(OCC(=O)O)cc(C)c1-c1cccc(CNc2ccc(CCC(=O)O)c(F)c2)c1 [Example 100, 3-[4-({[4′-(carboxymethoxy)-2′,6′-dimethylbiphenyl-3-yl]methyl}amino)-2-fluorophenyl]propanoic acid]",< 1000 nM
18,"CC(C)(C)c1cc(-c2ccccc2)n(Cc2ccc(CNc3ccc(CCC(=O)O)c(F)c3)cc2)n1 [Example 107, 3-[4-({4-[(3-tert-butyl-5-phenyl-1H-pyrazol-1-yl)methyl]benzyl}amino)-2-fluorophenyl]propanoic acid]",< 100 nM

# More lines, now with the values ahead:
row,EC50,Structure (SMILES)
1,< 100 nM,"O=C(O)CCc1ccc(NC2CCc3cc(OCc4ccccc4)ccc32)cc1 (stereo not shown) [Example 210, 3-(4-{[5-(benzyloxy)-2,3-dihydro-1H-inden-1-yl]amino}phenyl)propanoic acid]"
2,< 100 nM,"Cc1cc(OS(C)(=O)=O)cc(C)c1-c1cccc(CNc2ccc(CCC(=O)O)c(F)c2)c1 [Example 123, 3-{4-[({2′,6′-dimethyl-4′-[(methylsulfonyl)oxy]biphenyl-3-yl}methyl)amino]-2-fluorophenyl}propanoic acid]"
3,< 100 nM,"CC(C)(C)c1cc(OCc2ccccc2)n(Cc2ccc(CNc3ccc(CCC(=O)O)c(F)c3)cc2)n1 [Example 171, 3-{4-[(4-{[5-(benzyloxy)-3-tert-butyl-1H-pyrazol-1-yl]methyl}benzyl)amino]-2-fluorophenyl}propanoic acid dimethanesulfonate]"
4,< 100 nM,"Cc1ccc(COc2ccc(CNc3ccc(CCC(=O)O)c(F)c3)cc2CC(C)C)cc1 [Example 131, 3-[2-fluoro-4-({3-isobutyl-4-[(4-methylbenzyl)oxy]benzyl}amino)phenyl]propanoic acid]"
5,< 100 nM,"CCOCCOc1cc(C)c(-c2cccc(CNc3ccc(CCC(=O)O)cn3)c2)c(C)c1 [Example 120, 3-[6-({[4′-(2-ethoxyethoxy)-2′,6′-dimethylbiphenyl-3-yl]methyl}amino)pyridin-3-yl]propanoic acid methanesulfonate]"
6,< 100 nM,"CCCN(Cc1ccc(CNc2ccc(CCC(=O)O)cc2)cc1)c1nc(-c2ccccc2)cs1 [Example 21, 3-{4-[(4-{[(4-phenyl-1,3-thiazol-2-yl)(propyl)amino]methyl}benzyl)amino]phenyl}propanoic acid]"
7,< 100 nM,"Cc1cc(OCCCN2CCCC2=O)cc(C)c1-c1cccc(CNc2ccc(CCC(=O)O)c(F)c2)c1 [Example 149, 3-{4-[({2′,6′-dimethyl-4′-[3-(2-oxopyrrolidin-1-yl)propoxy]biphenyl-3-yl}methyl)amino]-2-fluorophenyl}propanoic acid benzenesulfonate]"
8,< 100 nM,"Cc1cc(OC2CCS(=O)(=O)CC2)cc(C)c1-c1cccc(CNc2ccc(CCC(=O)O)c(F)c2)c1 [Example 204, 3-{4-[({4′-[(1,1-dioxidotetrahydro-2H-thiopyran-4-yl)oxy]-2′,6′-dimethylbiphenyl-3-yl}methyl)amino]-2-fluorophenyl}propanoic acid methanesulfonate]"
9,< 100 nM,"CCOCCOc1ccc(-c2cc(CNc3ccc(CCC(=O)O)c(F)c3)cc3c2OC(C)(C)C3)cc1 [Example 136, 3-{4-[({7-[4-(2-ethoxyethoxy)phenyl]-2,2-dimethyl-2,3-dihydro-1-benzofuran-5-yl}methyl)amino]-2-fluorophenyl}propanoic acid methanesulfonate]"
10,< 100 nM,"Cc1cc(OCC2(O)CCS(=O)(=O)CC2)cc(C)c1-c1cccc(CNc2ccc(CCC(=O)O)c(F)c2)c1 [Example 188, 3-{2-fluoro-4-[({4′-[(4-hydroxy-1,1-dioxidotetrahydro-2H-thiopyran-4-yl)methoxy]-2′,6′-dimethylbiphenyl-3-yl}methyl)amino]phenyl}propanoic acid]"
